Data on 26 compounds can be found in US20010044445A1, “AZOLE INHIBITORS OF CYTOKINE PRODUCTION” (priority 1999, published 2001).

Data set [1] relates to Human peripheral blood mononuclear cells. In words: Human Concanavalin-A Proliferation Assay (Con HU Assay). Format: cell-based. The note with it: Homo sapiens, PBMC, concanavalin-A stimulated human PBMC; for inhibition at 10 µM / inhibition at 1 µM / inhibition at 100 µM: 72 h, 3 days, read-out: % Inhibition of proliferation (at concentrations of 1,10, or 100 μm); for inhibition at 10 µM: concentration 10 μm (in parentheses in the cell); for IC50: tritiated thymidine; for inhibition at 1 µM: concentration 1 μm (in parentheses in the cell); for inhibition at 100 µM: concentration 100 μm (in parentheses in the cell). Summed up: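 Proliferation read as tritiated thymidine uptake (0.5 μCi/well, 6 h pulse on day 3) in human PBMC cultured 3 days with 2.5 μg/ml (final) concanavalin-A. Cells, 50,000 per well in supplemented RPMI 1640 with 10% FBS, received compound 15 min before mitogen.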

As usually defined, the IC50 is the concentration at which inhibition is half-maximal. Low values mean inhibition by little substance, high ones a need for much substance. The term melting point denotes the temperature of the solid-liquid transition.

The compound `O=C(Nc1ccc(-n2nc(C(F)(F)F)cc2C(F)(F)F)cc1)c1ccc(Cl)cc1O` [Example 220, N-[4-[3,5-bis(trifluoromethyl)-1H-pyrazol-1-yl]phenyl]-4-chloro-2-hydroxybenzamide] displayed a melting point of 200 to 202 °C. Further, in data set [1], the inhibition at 10 µM was 100% and the midpoint of inhibition, the IC50, lay at 4230 nM.
The like results for `COc1ccc(C(=O)Nc2ccc(-n3nc(C(F)(F)F)cc3C(F)(F)F)cc2)cc1Br` [Example 221, N-[4-[3,5-bis(trifluoromethyl)-1H-pyrazol-1-yl]phenyl]-3-bromo-4-methoxybenzamide] were, in that order, 197 to 198 °C, 98% and 411 nM.
For `O=C(Nc1ccc(-n2nc(C(F)(F)F)cc2C(F)(F)F)cc1)c1cc(F)c(F)cc1Cl` [Example 223, N-[4-[3,5-bis(trifluoromethyl)-1H-pyrazol-1-yl]phenyl]-2-chloro-4,5-difluorobenzamide], the melting point was 149 to 152 °C. In addition, in data set [1], the inhibition at 10 µM amounted to 100% and it took 93 nM to reach half-maximal inhibition (IC50).
Consider `O=C(Nc1cccc(-n2nc(C(F)(F)F)cc2C(F)(F)F)c1)c1c(F)cccc1F` [Example 224, N-[3-[3,5-bis(trifluoromethyl)-1H-pyrazol-1-yl]phenyl]-2,6-difluorobenzamide], for which the melting point is 142 to 143 °C. Further, the inhibition at 1 µM in data set [1] came to 2%.
Consider `O=C(Nc1ccc(-n2nc(C(F)(F)F)cc2C(F)(F)F)cc1)c1cc(F)c(Cl)cc1F` [Example 225, N-[4-[3,5-bis(trifluoromethyl)-1H-pyrazol-1-yl]phenyl]-4-chloro-2,5-difluorobenzamide], for which the melting point was 160 to 162 °C. Besides, in data set [1], the inhibition at 10 µM worked out at 98% and the IC50 turned out to be 154 nM.
Taken in the same sequence, the figures for `O=C(Nc1ccc(-n2nc(C(F)(F)F)cc2C(F)(F)F)cc1)c1ccc(F)c(F)c1F` [Example 226, N-[4-[3,5-bis(trifluoromethyl)-1H-pyrazol-1-yl]phenyl]-2,3,4-trifluorobenzamide] were 122 to 124 °C, 100% and 43 nM.
Take `O=C(Nc1ccc(-n2nc(C(F)(F)F)cc2C(F)(F)F)cc1)c1cc(F)c(F)c(F)c1` [Example 227, N-[4-[3,5-bis(trifluoromethyl)-1H-pyrazol-1-yl]phenyl]-3,4,5-trifluorobenzamide]: the melting point fell in the range of 158 to 159 °C. In addition, in data set [1], the inhibition at 10 µM was 100% and the IC50 is 257 nM.
Take `O=C(Nc1ccc(-n2nc(C(F)(F)F)cc2C(F)(F)F)cc1)c1cc(F)c(F)cc1F` [Example 228, N-[4-[3,5-bis(trifluoromethyl)-1H-pyrazol-1-yl]phenyl]-2,4,5-trifluorobenzamide]: the melting point was in the range of 109 to 111 °C. Further, in data set [1], the inhibition at 10 µM stood at 99% and the IC50 came out at 147 nM.
`O=C(Nc1ccc(-n2nc(C(F)(F)F)cc2C(F)(F)F)cc1)c1c(F)cc(F)cc1F` [Example 229, N-[4-[3,5-bis(trifluoromethyl)-1H-pyrazol-1-yl]phenyl]-2,4,6-trifluorobenzamide] showed a melting point of 183 to 185 °C. Besides, in data set [1], the inhibition at 10 µM turned out to be 99% and the IC50 amounted to 40 nM.
Turning to `O=C(Nc1ccc(-n2nc(C(F)(F)F)cc2C(F)(F)F)cc1)c1c(F)ccc([N+](=O)[O-])c1F` [Example 230, N-[4-[3,5-bis(trifluoromethyl)-1H-pyrazol-1-yl]phenyl]-2,6-difluoro-3-nitrobenzamide], the melting point lay within 187 to 189 °C. Also, the inhibition at 1 µM in data set [1] is 64%.
In the case of `O=C(Nc1ccc(-n2nc(C(F)(F)F)cc2C(F)(F)F)cc1)c1cc(F)cc(F)c1F` [Example 231, N-[4-[3,5-bis(trifluoromethyl)-1H-pyrazol-1-yl]phenyl]-2,3,5-trifluorobenzamide], the melting point was in the range of 169 to 170 °C. Also, in data set [1], the inhibition at 10 µM is 100% and 25 nM corresponded to half-maximal inhibition (IC50).
Taken in the same sequence, the figures for `O=C(Nc1ccc(-n2nc(C(F)(F)F)cc2C(F)(F)F)cc1)c1c(F)cc(Cl)cc1Cl` [Example 232, N-[4-[3,5-bis(trifluoromethyl)-1H-pyrazol-1-yl]phenyl]-2,4-dichloro-6-fluorobenzamide] were 185 to 188 °C, 99% and 172 nM.
`O=C(Nc1ccc(-n2nc(C(F)(F)F)cc2C(F)(F)F)cc1)c1c(F)c(F)cc(F)c1F` [Example 234, N-[4-[3,5-bis(trifluoromethyl)-1H-pyrazol-1-yl]phenyl]-2,3,5,6-tetrafluorobenzamide] gave a melting point of 235 to 237 °C. Moreover, in data set [1], the inhibition at 10 µM is 99% and the IC50 turned out to be 61 nM.
Take `O=C(Nc1ccc(-n2nc(C(F)(F)F)cc2C(F)(F)F)cc1)c1cc(F)c(F)c(F)c1F` [Example 235, N-[4-[3,5-bis(trifluoromethyl)-1H-pyrazol-1-yl]phenyl]-2,3,4,5-tetrafluorobenzamide]: the melting point lay within 138 to 140 °C. For the same compound, in data set [1], the inhibition at 10 µM is 100% and the IC50 was determined as 107 nM.
Regarding `Cc1ccc([N+](=O)[O-])c(C(=O)Nc2ccc(-n3nc(C(F)(F)F)cc3C(F)(F)F)cc2)c1` [Example 237, N-[4-[3,5-bis(trifluoromethyl)-1H-pyrazol-1-yl]phenyl]-5-methyl-2-nitrobenzamide], the melting point is 188 to 189 °C. For the same compound, in data set [1], the inhibition at 100 µM was 100% and the midpoint of inhibition, the IC50, lay at 368 nM.
In turn, `N#Cc1ccc(C(=O)Nc2cccc(-n3nc(C(F)(F)F)cc3C(F)(F)F)c2)cc1` [Example 238, N-[3-[3,5-bis(trifluoromethyl)-1H-pyrazol-1-yl]phenyl]-4-cyanobenzamide] returned a melting point of 133 to 134 °C. Besides, in data set [1], the inhibition at 1 µM is 3%.
Take `O=C(Nc1ccc(-n2nc(C(F)(F)F)cc2C(F)(F)F)cc1)c1ccsc1` [Example 239, N-[4-[3,5-bis(trifluoromethyl)-1H-pyrazol-1-yl]phenyl]-3-thiophenecarboxamide]: the melting point was 239 to 240 °C. The inhibition at 10 µM in data set [1] was 55%.
For `O=C(Nc1ccc(-n2nc(C(F)(F)F)cc2C(F)(F)F)cc1)c1ccno1` [Example 240, N-[4-[3,5-bis(trifluoromethyl)-1H-pyrazol-1-yl]phenyl]-5-isoxazolecarboxamide], the melting point lay in the range of 202 to 204 °C. For the same compound, in data set [1], the inhibition at 10 µM came out at 84% and the IC50 was 507 nM.
`O=C(Nc1ccc(-n2nc(C(F)(F)F)cc2C(F)(F)F)cc1)C1CCCO1` (centres unmarked) [Example 241, N-[4-[3,5-bis(trifluoromethyl)-1H-pyrazol-1-yl]phenyl]tetrahydro-2-furancarboxamide] showed a melting point of 113 to 116 °C. The inhibition at 1 µM in data set [1] is 10%.
Taken in the same sequence, the figures for `O=C(Nc1ccc(-n2nc(C(F)(F)F)cc2C(F)(F)F)cc1)C1CCCN1` (centres unmarked) [Example 242, N-[4-[3,5-bis(trifluoromethyl)-1H-pyrazol-1-yl]phenyl]-2-pyrrolidinecarboxamide] were 82 to 84 °C and 3%.
Compound `O=C(Nc1ccc(-n2nc(C(F)(F)F)cc2C(F)(F)F)cc1)C1CCOC1` (centres unmarked) [Example 243, N-[4-[3,5-bis(trifluoromethyl)-1H-pyrazol-1-yl]phenyl]tetrahydro-3-furancarboxamide] displayed a melting point of 193 to 194 °C. Besides, in data set [1], the inhibition at 10 µM came to 99% and 390 nM corresponded to half-maximal inhibition (IC50).
As for `O=C(Nc1ccc(-n2nc(C(F)(F)F)cc2C(F)(F)F)cc1)c1cnns1` [Example 244, N-[4-[3,5-bis(trifluoromethyl)-1H-pyrazol-1-yl]phenyl]-1,2,3-thiadiazole-5-carboxamide], the melting point is 213 to 214 °C. Moreover, in data set [1], the inhibition at 10 µM came out at 94% and the IC50 was 523 nM.
Compound `O=C(Nc1ccc(-n2nc(C(F)(F)F)cc2C(F)(F)F)cc1)c1ccnc(Cl)c1` [Example 245, N-[4-[3,5-bis(trifluoromethyl)-1H-pyrazol-1-yl]phenyl]-2-chloro-4-pyridinecarboxamide] came in with a melting point of 183 to 184 °C. Moreover, in data set [1], the inhibition at 100 µM is 100% and inhibition was half-maximal at 279 nM (IC50).
Take `CC(C)(C)OC(=O)N1CCCC1C(=O)Nc1ccc(-n2nc(C(F)(F)F)cc2C(F)(F)F)cc1` (centres unmarked) [Example 246, 1,1-Dimethylethyl 2-[[[4-[3,5-bis(trifluoromethyl)-1H-pyrazol-1-yl]phenyl]amino]carbonyl]-1-pyrrolidinecarboxylate]: the melting point is 70 to 72 °C. Moreover, in data set [1], the inhibition at 1 µM is 47%.
`O=C(Nc1ccc(-n2nc(C(F)(F)F)cc2C(F)(F)F)cc1)c1ccc([N+](=O)[O-])o1` [Example 247, N-[4-[3,5-bis(trifluoromethyl)-1H-pyrazol-1-yl]phenyl]-5-nitro-2-furancarboxamide] yielded a melting point of 198 to 199 °C. Besides, in data set [1], the inhibition at 10 µM is 97% and 375 nM corresponded to half-maximal inhibition (IC50).
`Cn1cccc1C(=O)Nc1ccc(-n2nc(C(F)(F)F)cc2C(F)(F)F)cc1` [Example 248, N-[4-[3,5-bis(trifluoromethyl)-1H-pyrazol-1-yl]phenyl]-1-methyl-1H-pyrrole-2-carboxamide] returned a melting point of 148 to 149 °C. In data set [1], the inhibition at 10 µM is 100% and the IC50 turned out to be 143 nM.
